Experimental data from patent US4110327A, “2,3 Diketo-piperazinocarbonylamino alkanoic acids and derivatives” (Toyama Chemical Co., Ltd., priority 1974, dated 1978).
Values after ≈ are worked out from the molar mass of the structure shown.

Experiments:
Assay type in all cases: cell-based
[1] = system: Proteus rettgeri; assay: MIC against clinical isolates; settings: clinical isolate, unit assumed
[2] = system: Proteus mirabilis; assay: MIC against clinical isolates; settings: clinical isolate, unit assumed
[3] = system: Klebsiella pneumoniae; assay: MIC against clinical isolates; settings: unit assumed
[4] = system: Escherichia coli; assay: MIC against clinical isolates; settings: unit assumed
[5] = system: Proteus morganii; assay: MIC against clinical isolates; settings: clinical isolate, unit assumed
[6] = system: Pseudomonas aeruginosa I.F.O.; assay: MIC against standard strain, plate method; settings: unit assumed
Procedure, shortened: (§1)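 Agar plate dilution MIC in heart infusion agar, pH 7.4. Inoculum was 10^4 cells per plate, from a suspension of 10^6 cells/ml.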

[7] = system: Escherichia coli NIHJ; assay: MIC against standard strain, plate method; settings: unit assumed
Procedure, shortened: as §1

[8] = system: Proteus vulgaris 3027; assay: MIC against standard strain, plate method; settings: Proteus vulgaris 3027, standard strain; unit assumed
Procedure, shortened: as §1

[9] = system: Staphylococcus aureus 209p; assay: MIC against standard strain, plate method; settings: unit assumed
Procedure, shortened: as §1

[10] = system: Klebsiella pneumoniae; assay: MIC against standard strain, plate method; settings: unit assumed
Procedure, shortened: as §1

[11] = system: Pseudomonas aeruginosa; assay: MIC against clinical isolates; settings: unit assumed
[12] = system: Staphylococcus aureus; assay: MIC against clinical isolates; settings: unit assumed
[13] = system: Proteus vulgaris; assay: MIC against clinical isolates; settings: clinical isolate, unit assumed

For `CC(=O)OCC1=C(C(=O)O)N2C(=O)C(NC(=O)C(NC(=O)N3CCN(C)C(=O)C3=O)c3ccccc3)C2SC1` (single isomer, unassigned) [compound 60], the MIC [1] was 6.25 µg/mL (≈ 11.2 µM), the MIC [2] was 3.13 µg/mL (≈ 5.59 µM) and the MIC ([3]; clinical isolate GN 917) was 6.25 µg/mL (≈ 11.2 µM). For the same molecule, the MIC ([3]; clinical isolate GN 4081) was 25 µg/mL (≈ 44.7 µM), the MIC ([3]; clinical isolate GN 4117) was 25 µg/mL (≈ 44.7 µM) and the MIC ([4]; clinical isolate GN 3435) was 6.25 µg/mL (≈ 11.2 µM). The MIC ([4]; clinical isolate GN 3452) was 12.5 µg/mL (≈ 22.3 µM), the MIC ([4]; clinical isolate GN 3465) was 100 µg/mL (≈ 179 µM) and the MIC ([4]; clinical isolate GN 3481) was 6.25 µg/mL (≈ 11.2 µM). For the same molecule, the MIC ([4]; clinical isolate GN 3611) was over 200 µg/mL, the MIC ([4]; clinical isolate K-1) was 6.25 µg/mL (≈ 11.2 µM) and the MIC ([4]; clinical isolate K-2) was 12.5 µg/mL (≈ 22.3 µM). The MIC ([4]; clinical isolate K-3) was 200 µg/mL (≈ 357 µM), the MIC ([4]; clinical isolate K-4) was 25 µg/mL (≈ 44.7 µM) and the MIC [5] was 3.13 µg/mL (≈ 5.59 µM). It also gave an MIC [6] of 25 µg/mL (≈ 44.7 µM), an MIC [7] of under 0.1 µg/mL and an MIC [8] of 3.13 µg/mL (≈ 5.59 µM). It also gave an MIC [9] of 0.79 µg/mL (≈ 1.41 µM), an MIC [10] of 3.13 µg/mL (≈ 5.59 µM) and an MIC ([11]; clinical isolate GN 82) of 50 µg/mL (≈ 89.4 µM). The MIC ([11]; clinical isolate GN 163) was 50 µg/mL (≈ 89.4 µM), the MIC ([11]; clinical isolate GN 221) was 12.5 µg/mL (≈ 22.3 µM) and the MIC ([11]; clinical isolate GN 244) was 50 µg/mL (≈ 89.4 µM). The MIC ([11]; clinical isolate GN 376) was 50 µg/mL (≈ 89.4 µM), the MIC ([11]; clinical isolate GN 383) was 50 µg/mL (≈ 89.4 µM) and the MIC ([11]; clinical isolate GN 1035) was 200 µg/mL (≈ 357 µM). For the same molecule, the MIC ([11]; clinical isolate GN 1091) was 50 µg/mL (≈ 89.4 µM), the MIC ([11]; clinical isolate GN 2565) was 100 µg/mL (≈ 179 µM) and the MIC ([11]; clinical isolate GN 2987) was 50 µg/mL (≈ 89.4 µM). It also gave an MIC ([11]; clinical isolate S-1) of 200 µg/mL (≈ 357 µM), an MIC ([11]; clinical isolate S-2) of 100 µg/mL (≈ 179 µM) and an MIC ([11]; clinical isolate S-3) of 100 µg/mL (≈ 179 µM). It also gave an MIC ([11]; clinical isolate S-4) of 100 µg/mL (≈ 179 µM), an MIC ([12]; clinical isolate F-1) of 3.13 µg/mL (≈ 5.59 µM) and an MIC ([12]; clinical isolate F-2) of 0.78 µg/mL (≈ 1.39 µM). For the same molecule, the MIC ([12]; clinical isolate F-3) was 1.56 µg/mL (≈ 2.79 µM), the MIC ([12]; clinical isolate F-4) was 1.56 µg/mL (≈ 2.79 µM) and the MIC ([12]; clinical isolate F-5) was 50 µg/mL (≈ 89.4 µM). For the same molecule, the MIC ([12]; clinical isolate MS 8588) was 1.56 µg/mL (≈ 2.79 µM), the MIC ([12]; clinical isolate MS 8596) was 0.78 µg/mL (≈ 1.39 µM) and the MIC ([12]; clinical isolate MS 8619) was 0.78 µg/mL (≈ 1.39 µM). For the same molecule, the MIC ([12]; clinical isolate MS 8684) was 1.56 µg/mL (≈ 2.79 µM), the MIC ([12]; clinical isolate MS 8713) was 0.78 µg/mL (≈ 1.39 µM) and the MIC [13] was 1.56 µg/mL (≈ 2.79 µM).

With `CC(=O)OCC1=C(C(=O)O)N2C(=O)[C@@H](NC(=O)[C@H](N)c3ccccc3)[C@H]2SC1` [Sodium Cephaloglycin, SodiumCephaloglycin, reference compound] the MIC [1] was 50 µg/mL, the MIC [2] was 3.13 µg/mL and the MIC ([3]; clinical isolate GN 917) was 1.56 µg/mL. For the same molecule, the MIC ([3]; clinical isolate GN 4081) was 3.13 µg/mL, the MIC ([3]; clinical isolate GN 4117) was 3.13 µg/mL and the MIC ([4]; clinical isolate GN 3435) was 1.56 µg/mL. The MIC ([4]; clinical isolate GN 3452) was 3.13 µg/mL, the MIC ([4]; clinical isolate GN 3465) was 12.5 µg/mL and the MIC ([4]; clinical isolate GN 3481) was 3.13 µg/mL. For the same molecule, the MIC ([4]; clinical isolate GN 3611) was 25 µg/mL, the MIC ([4]; clinical isolate K-1) was 1.56 µg/mL and the MIC ([4]; clinical isolate K-2) was 1.56 µg/mL. The MIC ([4]; clinical isolate K-3) was 25 µg/mL, the MIC ([4]; clinical isolate K-4) was 12.5 µg/mL and the MIC [5] was 1.56 µg/mL. The MIC [6] was over 200 µg/mL, the MIC [7] was under 1.57 µg/mL and the MIC [8] was under 1.57 µg/mL. The MIC [9] was under 1.57 µg/mL, the MIC [10] was 100 µg/mL and the MIC ([11]; clinical isolate GN 82) was over 200 µg/mL. For the same molecule, the MIC ([11]; clinical isolate GN 163) was over 200 µg/mL, the MIC ([11]; clinical isolate GN 221) was over 200 µg/mL and the MIC ([11]; clinical isolate GN 244) was over 200 µg/mL. It also gave an MIC ([11]; clinical isolate GN 376) of over 200 µg/mL, an MIC ([11]; clinical isolate GN 383) of over 200 µg/mL and an MIC ([11]; clinical isolate GN 1035) of over 200 µg/mL. For the same molecule, the MIC ([11]; clinical isolate GN 1091) was over 200 µg/mL, the MIC ([11]; clinical isolate GN 2565) was over 200 µg/mL and the MIC ([11]; clinical isolate GN 2987) was over 200 µg/mL. It also gave an MIC ([11]; clinical isolate S-1) of over 200 µg/mL, an MIC ([11]; clinical isolate S-2) of over 200 µg/mL and an MIC ([11]; clinical isolate S-3) of over 200 µg/mL. The MIC ([11]; clinical isolate S-4) was over 200 µg/mL, the MIC ([12]; clinical isolate F-1) was 3.13 µg/mL and the MIC ([12]; clinical isolate F-2) was 1.56 µg/mL. The MIC ([12]; clinical isolate F-3) was 1.56 µg/mL, the MIC ([12]; clinical isolate F-4) was 3.13 µg/mL and the MIC ([12]; clinical isolate F-5) was 25 µg/mL. For the same molecule, the MIC ([12]; clinical isolate MS 8588) was 3.13 µg/mL, the MIC ([12]; clinical isolate MS 8596) was 1.56 µg/mL and the MIC ([12]; clinical isolate MS 8619) was 1.56 µg/mL. The MIC ([12]; clinical isolate MS 8684) was 1.56 µg/mL, the MIC ([12]; clinical isolate MS 8713) was 3.13 µg/mL and the MIC [13] was 50 µg/mL.

`Cc1nnc(SCC2=C(C(=O)O)N3C(=O)C(NC(=O)C(NC(=O)N4CCN(C)C(=O)C4=O)c4ccccc4)C3SC2)s1` (single isomer, unassigned) [compound 62] showed an MIC [1] of 6.25 µg/mL (≈ 9.89 µM), an MIC [2] of 6.25 µg/mL (≈ 9.89 µM) and an MIC ([3]; clinical isolate GN 917) of 6.25 µg/mL (≈ 9.89 µM). It also gave an MIC ([3]; clinical isolate GN 4081) of 12.5 µg/mL (≈ 19.8 µM), an MIC ([3]; clinical isolate GN 4117) of 25 µg/mL (≈ 39.6 µM) and an MIC ([4]; clinical isolate GN 3435) of 6.25 µg/mL (≈ 9.89 µM). The MIC ([4]; clinical isolate GN 3452) was 6.25 µg/mL (≈ 9.89 µM), the MIC ([4]; clinical isolate GN 3465) was 25 µg/mL (≈ 39.6 µM) and the MIC ([4]; clinical isolate GN 3481) was 6.25 µg/mL (≈ 9.89 µM). It also gave an MIC ([4]; clinical isolate GN 3611) of 200 µg/mL (≈ 317 µM), an MIC ([4]; clinical isolate K-1) of 6.25 µg/mL (≈ 9.89 µM) and an MIC ([4]; clinical isolate K-2) of 12.5 µg/mL (≈ 19.8 µM). The MIC ([4]; clinical isolate K-3) was 200 µg/mL (≈ 317 µM), the MIC ([4]; clinical isolate K-4) was 12.5 µg/mL (≈ 19.8 µM) and the MIC [5] was 3.13 µg/mL (≈ 4.95 µM). It also gave an MIC [6] of 50 µg/mL (≈ 79.1 µM), an MIC [7] of under 0.1 µg/mL and an MIC [8] of 3.13 µg/mL (≈ 4.95 µM). The MIC [9] was 0.79 µg/mL (≈ 1.25 µM), the MIC [10] was 1.57 µg/mL (≈ 2.49 µM) and the MIC ([11]; clinical isolate GN 82) was 100 µg/mL (≈ 158 µM). The MIC ([11]; clinical isolate GN 163) was 50 µg/mL (≈ 79.1 µM), the MIC ([11]; clinical isolate GN 221) was 50 µg/mL (≈ 79.1 µM) and the MIC ([11]; clinical isolate GN 244) was 100 µg/mL (≈ 158 µM). It also gave an MIC ([11]; clinical isolate GN 376) of 100 µg/mL (≈ 158 µM), an MIC ([11]; clinical isolate GN 383) of 100 µg/mL (≈ 158 µM) and an MIC ([11]; clinical isolate GN 1035) of 200 µg/mL (≈ 317 µM). It also gave an MIC ([11]; clinical isolate GN 1091) of 100 µg/mL (≈ 158 µM), an MIC ([11]; clinical isolate GN 2565) of 100 µg/mL (≈ 158 µM) and an MIC ([11]; clinical isolate GN 2987) of 50 µg/mL (≈ 79.1 µM). The MIC ([11]; clinical isolate S-1) was 200 µg/mL (≈ 317 µM), the MIC ([11]; clinical isolate S-2) was 200 µg/mL (≈ 317 µM) and the MIC ([11]; clinical isolate S-3) was 200 µg/mL (≈ 317 µM). The MIC ([11]; clinical isolate S-4) was 200 µg/mL (≈ 317 µM), the MIC ([12]; clinical isolate F-1) was 3.13 µg/mL (≈ 4.95 µM) and the MIC ([12]; clinical isolate F-2) was 0.78 µg/mL (≈ 1.23 µM). It also gave an MIC ([12]; clinical isolate F-3) of 1.56 µg/mL (≈ 2.47 µM), an MIC ([12]; clinical isolate F-4) of 1.56 µg/mL (≈ 2.47 µM) and an MIC ([12]; clinical isolate F-5) of 12.5 µg/mL (≈ 19.8 µM). The MIC ([12]; clinical isolate MS 8588) was 1.56 µg/mL (≈ 2.47 µM), the MIC ([12]; clinical isolate MS 8596) was 0.78 µg/mL (≈ 1.23 µM) and the MIC ([12]; clinical isolate MS 8619) was 0.78 µg/mL (≈ 1.23 µM). It also gave an MIC ([12]; clinical isolate MS 8684) of 1.56 µg/mL (≈ 2.47 µM), an MIC ([12]; clinical isolate MS 8713) of 1.56 µg/mL (≈ 2.47 µM) and an MIC [13] of 3.13 µg/mL (≈ 4.95 µM).
